Assay results published in US9115101B2 (Genentech, Inc., priority 2012, dated 2015).

biological target: T1, RORc ligand binding domain (Homo sapiens, UniProt P51449); assay: In Vitro RORc Ligand Binding Assay (25-[3H]hydroxycholesterol radioligand filtration); details: In Vitro RORc Ligand Binding Assay; Table 4; read-out: RORc IC50
T1 construct: host or cells: E. coli
T1 sequence (P51449 269-508 limits assumed): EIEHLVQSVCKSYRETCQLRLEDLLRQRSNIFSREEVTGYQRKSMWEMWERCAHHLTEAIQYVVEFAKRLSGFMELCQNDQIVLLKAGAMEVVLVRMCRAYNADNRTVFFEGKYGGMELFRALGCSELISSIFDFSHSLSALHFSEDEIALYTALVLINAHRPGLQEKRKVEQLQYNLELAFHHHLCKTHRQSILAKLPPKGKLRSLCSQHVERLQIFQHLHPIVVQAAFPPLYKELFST

| SMILES | IC50 [µM] |
| --- | --- |
| CC(=O)N1CCN(c2ccc(CN3[C@@H](C)CCC(c4ccccc4)S3(=O)=O)cc2Cl)CC1 (single isomer, unassigned) [Example 163] | 0.057 |
| COc1cc(N2CCN(C(C)=O)CC2)ccc1CN1[C@@H](C)CCC(c2ccccc2)S1(=O)=O (single isomer, unassigned) [Example 159] | 1.61 |
| CCOC(=O)N1CCC(NC(=O)c2ccc(CN3[C@@H](C)CCC(c4ccccc4)S3(=O)=O)cc2)CC1 (stereo partly drawn) [Example 276, 4-[4-((3S)-Methyl-1,1-dioxo-6-phenyl-[1,2]thiazinan-2-ylmethyl)-benzoylamino]-piperidine-1-carboxylic acid ethyl ester] | 4.44 |
| CC(=O)N1CCN(c2ccc(CN3C[C@@H](C)CC(c4ccccc4)S3(=O)=O)c(F)c2)CC1 (single isomer, unassigned) [Example 198] | 0.019 |
| C[C@H]1CCC(c2ccccc2)S(=O)(=O)N1Cc1ccc(C(=O)NC2CC(O)C2)cc1 (stereo partly drawn) [Example 268, N-(3-Hydroxy-cyclobutyl)-4-((3S)-methyl-1,1-dioxo-6-phenyl-[1,2]thiazinan-2-ylmethyl)-benzamide] | 3.25 |
| C[C@H]1CCC(c2ccccc2)S(=O)(=O)N1Cc1ccc(C(=O)N2CC(c3nncn3C)C2)cc1 (stereo partly drawn) [Example 295, [4-((3S)-Methyl-1,1-dioxo-6-phenyl-[1,2]thiazinan-2-ylmethyl)-phenyl]-[3-(4-methyl-4H-[1,2,4]triazol-3-yl)-azetidin-1-yl]-methanone] | 5.35 |
| CC(=O)N1CCN(c2ccc(CN3CCOCC(c4ccccc4)S3(=O)=O)c(F)c2)CC1 (stereo not drawn) [Example 21, 1-{4-[4-(4,4-Dioxo-3-phenyl-[1,4,5]oxathiazepan-5-ylmethyl)-3-fluoro-phenyl]-piperazin-1-yl}-ethanone] | 0.209 |
| CC(=O)N1CCN(c2ccc(CN3[C@@H](C)CCC(c4ccccc4)S3(=O)=O)nc2)CC1 (stereo partly drawn) [Example 67, 1-{4-[6-((3S)-3-Methyl-1,1-dioxo-6-phenyl-[1,2]thiazinan-2-ylmethyl)-pyridin-3-yl]-piperazin-1-yl}-ethanone] | 1.54 |
| C[C@H]1CCC(c2ccccc2)S(=O)(=O)N1Cc1ccc(N2CCn3nccc3C2)cc1F (single isomer, unassigned) [Example 133] | 0.244 |
| CC(=O)N1CCN(c2ccc(CN3[C@@H](C)CCC(c4cccc(F)c4)S3(=O)=O)c(F)c2)CC1 (single isomer, unassigned) [Example 128] | 0.052 |
| C[C@H]1CCC(c2ccccc2)S(=O)(=O)N1Cc1ccc(C(=O)N2CCOC(C(=O)N(C)C)C2)cc1 (stereo partly drawn) [Example 293, 4-[4-((3S)-Methyl-1,1-dioxo-6-phenyl-[1,2]thiazinan-2-ylmethyl)-benzoyl]-morpholine-2-carboxylic acid dimethylamide] | 8.31 |
| C[C@H]1CCC(c2ccccc2)S(=O)(=O)N1Cc1ccc(C(=O)NCCN2CCCC2=O)cc1 (stereo partly drawn) [Example 275, 4-((3S)-Methyl-1,1-dioxo-6-phenyl-[1,2]thiazinan-2-ylmethyl)-N-[2-(2-oxo-pyrrolidin-1-yl)-ethyl]-benzamide] | 6.05 |
| C[C@H](O)C(=O)N1CCN(c2ccc(CN3CCCCC(c4ccccc4)S3(=O)=O)c(F)c2)CC1 (single isomer, unassigned) [Example 304, 1-{4-[4-(1,1-Dioxo-7-phenyl-[1,2]thiazepan-2-ylmethyl)-3-fluoro-phenyl]-piperazin-1-yl}-2-hydroxy-propan-1-one] | 0.038 |
| C[C@H]1CCC(c2ccccc2)S(=O)(=O)N1Cc1ccc(N2CCC(c3nccn3C)CC2)cc1F (single isomer, unassigned) [Example 139] | 1.39 |

Other lines, results leading:

| IC50 [µM] | SMILES |
| --- | --- |
| 0.024 | CC(=O)N1CCN(c2ccc(CN3C(C)CCCC(c4ccccc4)S3(=O)=O)c(F)c2)CC1 (single isomer, unassigned) [Example 329, 1-{4-[3-Fluoro-4-(3-methyl-1,1-dioxo-7-phenyl-[1,2]thiazepan-2-ylmethyl)-phenyl]-piperazin-1-yl}-ethanone] |
| 2.8 | CC(=O)N1CCN(c2ccc(CN3[C@H](C)CCC(c4ccccc4)S3(=O)=O)c(F)c2)CC1 (single isomer, unassigned) [Example 19] |
| 0.014 | C[C@H]1CCC(c2ccccc2)S(=O)(=O)N1Cc1ccc(N2CCN(C(=O)C3CC3)CC2)cc1F (single isomer, unassigned) [Example 58] |
| 0.057 | C[C@H]1CCC(c2ccccc2)S(=O)(=O)N1Cc1ccc(N2CCC(c3nnn[nH]3)CC2)cc1F (single isomer, unassigned) [Example 141] |
| 0.054 | C[C@H]1CCC(c2ccccc2)S(=O)(=O)N1Cc1ccc(N2CC3(CCOC3)C2)cc1F (single isomer, unassigned) [Example 94] |
| 0.049 | C[C@H](O)C(=O)N1CCCN(c2ccc(CN3[C@@H](C)CCC(c4ccccc4)S3(=O)=O)c(F)c2)CC1 (single isomer, unassigned) [Example 93] |
| 0.027 | C[C@H]1CCC(c2ccccc2)S(=O)(=O)N1Cc1ccc(N2CCC(n3cnnc3)CC2)cc1F (single isomer, unassigned) [Example 151] |

same assay, conditions: read-out: RORc IC50

| SMILES | IC50 [µM] |
| --- | --- |
| C[C@H]1CCC(c2ccccc2)S(=O)(=O)N1Cc1ccc(N2CCC(C)(n3cnnc3)CC2)cc1F (single isomer, unassigned) [Example 412] | 0.585 |
| C[C@H]1CCC(c2ccccc2)S(=O)(=O)N1Cc1ccc(OCCN2CCOCC2)cc1 (stereo partly drawn) [Example 438, 4-{2-[4-((3S)-Methyl-1,1-dioxo-6-phenyl-[1,2]thiazinan-2-ylmethyl)-phenoxy]-ethyl}-morpholine] | 0.665 |
| C[C@H]1CCC(c2ccccc2)S(=O)(=O)N1Cc1ccc(OC2CCNC2=O)cc1 (stereo partly drawn) [Example 446, 3-[4-((3S)-Methyl-1,1-dioxo-6-phenyl-[1,2]thiazinan-2-ylmethyl)-phenoxy]-pyrrolidin-2-one] | 1.5 |
| C[C@H]1CCC(c2ccccc2)S(=O)(=O)N1Cc1ccc(OC2CCOC2)cc1 (stereo partly drawn) [Example 447, (3S)-Methyl-6-phenyl-2-[4-(tetrahydro-furan-3-yloxy)-benzyl]-[1,2]thiazinane 1,1-dioxide] | 0.268 |
| C[C@H]1CCC(c2ccccc2)S(=O)(=O)N1Cc1ccc(OCC2(C)COC2)cc1 (stereo partly drawn) [Example 448, (3S)-Methyl-2-[4-(3-methyl-oxetan-3-ylmethoxy)-benzyl]-6-phenyl-[1,2]thiazinane 1,1-dioxide] | 0.656 |

The next lines start with the values.

| IC50 [µM] | SMILES |
| --- | --- |
| 0.129 | C[C@H]1CCC(c2ccccc2)S(=O)(=O)N1Cc1ccc(N2CCN3C(=O)OCC3C2)cc1F (single isomer, unassigned) [Example 418] |
| 0.123 | C[C@H]1CCC(c2ccccc2)S(=O)(=O)N1Cc1ccc(NC(=O)CC2CCOCC2)cc1F (stereo partly drawn) [Example 455, N-[3-Fluoro-4-((3S)-methyl-1,1-dioxo-6-phenyl-[1,2]thiazinan-2-ylmethyl)-phenyl]-2-(tetrahydro-pyran-4-yl)-acetamide] |
| 0.048 | CC(Oc1ccc(CN2[C@@H](C)CCC(c3ccccc3)S2(=O)=O)cc1)C1CCOCC1 (stereo partly drawn) [Example 437, (3S)-Methyl-6-phenyl-2-{4-[1-(tetrahydro-pyran-4-yl)-ethoxy]-benzyl}-[1,2]thiazinane 1,1-dioxide] |
| 0.032 | C[C@H]1CCC(c2ccccc2)S(=O)(=O)N1Cc1ccc(N2CCN3C(=O)CC[C@H]3C2)cc1F (stereo partly drawn) [Example 419, (S)-2-[3-Fluoro-4-((3S)-methyl-1,1-dioxo-6-phenyl-[1,2]thiazinan-2-ylmethyl)-phenyl]-hexahydro-pyrrolo[1,2-a]pyrazin-6-one] |
